In patent publication US20230270692A1, “COMPOUNDS FOR CHRONIC DISORDERS” (Pillai Universal LLC, priority 2020, published 2023):
Read-outs that look alike come from different tables or passages of the source.

Experiments:
[1] = Cytotoxicity in Calu-3 cells; assay type: cell-based; conditions: human, Calu-3 lung epithelial cells, read-out: 50% cytotoxic concentration (CC50)
Description: The antiviral activity of Compound I was assessed against SARS-CoV-2 in Calu-3 cultures. […] To determine if Compound I could inhibit replication, we first evaluated antiviral activity and cytotoxicity in the continuous human lung epithelial cell line Calu-3 cells.

[2] = Reduction of hydroxychloroquine side effects; conditions: treatment of COVID-19
Source text: Coronavirus disease (COVID-19) is an infectious disease caused by virus SARS-CoV-2. The disease causes respiratory illness with symptoms such as a cough, fever, and in more severe cases, difficulty breathing. At present, one drug that may be effective in treating COVID-19 is hydroxychloroquine. However the drug hydroxychloroquine causes serious side effects including cardiovascular diseases, eye damage, mild or severe bronchospasm, and also affects mental health. The effect of Compound I of the present invention in reducing the side effects associated with hydroxychloroquine was studied according to methods known in the art.

SARS-CoV-2 [3] = assay type: in vivo; conditions: PO 250 mg B.I.D. over 7 days
[4] = Acute oral toxicity (OECD 423); assay type: in vivo
Description: Experimental Design: The assay of acute toxicity was performed according to the Organization for Economic Cooperation and Development (OECD) guideline 423 (OECD, 2001a). A total of 60 mice weighing between 27 and 37 g were randomly divided into six experimental groups of 10 mice each (5 males and 5 females per group). After fasting overnight Compound I was administered to each treatment group at single doses of 200, 500 1000, 2000, mg/kg, respectively, by oral gavage. The control groups were treated with the same volume of distilled water. After dosing, all animals were observed individually for mortality and changes in general behavior during the first 30 min, then at 2, 4, 6, 10 and 24 h following treatment. Symptoms of toxicity such as hypo-activity, piloerection, breathing difficulty, tremors, and convulsion were evaluated after administration of the various doses. The LD 50 value was determined according to the method described by the OECD Guidelines 423 (OECD, 2001a). During the remaining experimental period, the animal observation was performed at least once per day for the post-dosing period of 14 days. Body weights were measured at the initiation of treatment, and on days 4, 7, 11 and 14 after administration. On the 14th day, the mice were sacrificed under anesthesia, and vital organs (heart, kidneys, lung, spleen and liver) were removed for macroscopic examination.

SARS-CoV-2 [5] = test: Inactivation of SARS-CoV-2 upon direct exposure; conditions: Severe acute respiratory syndrome coronavirus 2, read-out: 50% reduction (IC50), inactivation of SARS-CoV-2
SARS-CoV-2 [6] = assay type: cell-based
[7] = 28-day oral sub-chronic toxicity (OECD 408); assay type: in vivo
Description: […] […] Rats in control groups were administrated orally with the same volume of distilled water (vehicle). During the experimental period, the body weights of all groups were measured once a week. Animals were also visually observed for mortality, changes in behavioral patterns, changes in physical appearance, and symptoms of illness. […] Blood samples were collected for the measurement of hematological (EDTA-2K coated tubes) and biochemical (dry tubes) parameters. After euthanasia, the rats were sacrificed and organs were removed for necropsy, organ weight measurement, and histopathological examination.
Urinalysis: On the last week of the treatment period, a urine test was conducted in all rat groups. Fresh urine was collected overnight from all animals, to determine specific gravity, pH, levels of leukocytes, nitrites, protein, glucose, ketones, blood, urobilinogen, and bilirubin. Urine samples were analyzed using an automatic urine analyzer and test strips.
Hematology and serum biochemistry: For the hematological investigation, all animals fasted overnight but were allowed access to water ad libitum. The rats were then anesthetized, and blood samples were collected from the abdominal aorta. Whole blood was collected in EDTA tubes (containing potassium salt of ethylenediamine-tetracetic acid) and processed immediately for hematological analysis. The parameters measured were red blood cell count (RBC), hematocrit (HCT), hemoglobin (HGB), mean corpuscular volume (MCV), mean corpuscular hemoglobin concentration (MCHC), mean corpuscular hemoglobin (MCH), white blood cell count (WBC), neutrophils (NEU), eosinophils (EOS), basophils (BASO), lymphocytes (LYM), and monocytes (MONO). The hematological analysis was performed using an automatic hematological analyzer. For the measurement of biochemical parameters, dry tubes containing collected blood were centrifuged at 3000 rpm at 5° C. for 15 min to obtain the serum. Serum samples were analyzed using an automated biochemistry analyzer. The clinical biochemistry parameters included, total serum protein (TP), albumin (ALB), total bilirubin (T-BIL), alkaline phosphatase (ALP), alanine aminotransferase (ALT), aspartate aminotransferase (AST), uric acid (URIC), urea (UREA), creatinine (CREA), low-density lipoprotein-cholesterol (LDL-C), high-density lipoprotein-cholesterol (HDL-C), total cholesterol (TC), triglycerides (TG), and glucose (GLU). Serum electrolytes such as calcium (Ca2+), sodium (Nat), potassium (K^+), and chloride (CF) were also determined.
Necropsy and organ weight: All groups of rats were subjected to gross necropsy, which included the examination of the thoracic organs, external surface, and all of the internal organs. Vital organs were carefully examined macroscopically for any type of abnormalities. Thereafter, various organs, including the heart, liver, kidneys, stomach, lung, spleen, adrenals, thymus, epididymis, testes, uterus, and ovaries were surgically removed, cleaned with ice-cold saline solution, placed on absorbent papers, and then weighed (absolute organ weight in grams). The relative organ weight (ROW) of each animal was then calculated as follows: ROW=[Absolute organ weight (g)÷Bodyweight of rat on sacrifice day (g)]×100.
Histopathology: The major organs (lung, heart, liver, kidney) and reproductive organs (testis and ovary) were removed for histopathological examinations. After weight measurement, the organs were quickly fixed in 10% buffered formalin (pH 7.4). Following fixation, tissue specimens were dehydrated in a graded series of ethanol (70-100%), cleared in toluene, and finally enclosed in paraffin. Thereafter, 5-μm thin sections were prepared using a microtome (Leica) and stained with Haematoxylin and Eosin (H & E) prior to microscopic examination.

## COc1cc(/C=C/C(=O)/C=C/C=C/c2cc(OC)c(O)c(OC)c2)cc(OC)c1 [Compound I]
[1]
  CC50: > 100 µM
[2]
  effect on hydroxychloroquine side effects: assists in potentiating hydroxychloroquine by reducing the side effects
SARS-CoV-2 [3]
  time to decrease of overactivated cytokine-secreting immune cells: 3 to 5 days
  time to improved pulmonary function and symptoms: 4 to 5 days
[4]; acute, 14-day observation, both sexes
  treatment related death: no treatment related death was observed
[4]; both sexes, mouse, in vivo, oral, read-out: median lethal dose (LD50)
  LD50 at 14 days: > 2000 mg/kg
[4]; both, mouse, in vivo, 14 days
  GHS classification: Category 5
SARS-CoV-2 [5]
  IC50: 1000 nM
SARS-CoV-2 [6]; 1 μM added after 10 h post infection
  inhibition: no inhibition
SARS-CoV-2 [6]; 1 μM added between 6 and 8 h post infection
  inhibition: Less inhibition
SARS-CoV-2 [6]; 1 μM added between 2 h pre-infection and 2-h post infection
  inhibition: Maximal inhibition
SARS-CoV-2 [6]; increasing concentrations
  viral RNA levels (qPCR): decreased
[7]; 200, 500, 1000 and 2000 mg/kg, both sexes
  plasma levels of AST, ALT, ALP activities: insignificant changes
[7]; 28 d, P>0.05 vs control
  food and water intakes: no significant changes
[7]; acute and subacute toxicity groups
  body weight: did not elicit any deleterious effect on body weight
[7]; all doses, both sexes
  level of creatinine, electrolytes, urea or uric acid: no significant difference
[7]; any of the doses
  WBC count and subtypes: did not cause any significant changes
[7]; compared to the control group
  hematological parameters (WBC, RBC, PCV, hemoglobin): not significantly altered
[7]; female rats
  histopathology: liver: almost normal cellular architecture with normal hepataocytes
[7]; liver, brain, kidney, heart, spleen
  Relative organ weight (ROW): did not elicit any adverse effects to the vital organs
[7]; male and female rats
  histopathology: heart: appeared normal
  histopathology: kidney: almost normal size and shape of glomeruli, tubules, intestinum and blood vesicles
  histopathology: lungs: no lymphocytic infiltrations were observed
  histopathology: pancreas: almost no abnormalities were observed
  histopathology: stomach: normal cellular architecture
[7]; male rats
  histopathology: liver: normal hepatocytes along with normal portal triads, sinusoidal spaces and central venous system
[7]; rat, in vivo
  histopathology: reproductive organs (testis, ovary): normal pathology
  levels of total protein, albumin, conjugated bilirubin and bilirubin: no significant difference
[7]; subacute, 28-day, both sexes
  treatment related death: no treatment related death was observed
